In brackets after ≈: the same amount, converted by molar mass.
How the values were obtained:
Test in all cases: MIC, agar incorporation method
S. aureus ATCC 25923 = conditions: agar incorporation
MRSA 15187 = conditions: agar incorporation
MRSA 33 = conditions: agar incorporation
Ent. faecalis ATCC 29212 = conditions: agar incorporation
VRE 6A (Ent. faecium 6A) = conditions: agar incorporation
Strep. pyog. ATCC 19615 = conditions: agar incorporation
Strep. pne. ATCC 6303 = conditions: agar incorporation
S. pneum AB 34 = conditions: agar incorporation
MRSA 562 = conditions: agar incorporation; Table 1

Row | MIC S. aureus 25923 (S. aureus ATCC 25923) | MIC MRSA 15187 (MRSA 15187) | MIC MRSA 33 (MRSA 33) | MIC E. faecalis 29212 (Ent. faecalis ATCC 29212) | MIC VRE 6A (VRE 6A (Ent. faecium 6A)) | MIC S. pyogenes 19615 (Strep. pyog. ATCC 19615) | MIC S. pneum 6303 (Strep. pne. ATCC 6303) | MIC S. pneum AB 34 (S. pneum AB 34) | MIC MRSA 562 (MRSA 562) | SMILES
1 | 8 µg/mL (≈ 18.5 µM) | 8 µg/mL (≈ 18.5 µM) | 8 µg/mL (≈ 18.5 µM) | 8 µg/mL (≈ 18.5 µM) | 8 µg/mL (≈ 18.5 µM) | 4 µg/mL (≈ 9.25 µM) | 8 µg/mL (≈ 18.5 µM) | 8 µg/mL (≈ 18.5 µM) | 8 µg/mL (≈ 18.5 µM) | CC(=O)NC[C@H]1CN(c2ccc(N3CCN(Cc4cccs4)CC3)c(F)c2)C(=O)O1 [Compound No. 12, (S)-N-[[3-[3-Fluoro-4-[N-1[4-(2-thienylmethyl)]piperazinyl]phenyl]-2-oxo-5-oxazolidinyl]methyl]acetamide]
2 | 2 µg/mL (≈ 4.65 µM) | 2 µg/mL (≈ 4.65 µM) | 4 µg/mL (≈ 9.29 µM) | 2 µg/mL (≈ 4.65 µM) | 2 µg/mL (≈ 4.65 µM) | 1 µg/mL (≈ 2.32 µM) | 2 µg/mL (≈ 4.65 µM) | 1 µg/mL (≈ 2.32 µM) |  | CC(=O)NC[C@H]1CN(c2ccc(N3CCN(C(=O)c4ccco4)CC3)c(F)c2)C(=O)O1 [Compound No. 01, (S)-N-[[3-[3-Fluoro-4-[N-1-[4-(2-furoyl)piperazinyl]]phenyl]-2-oxo-5-oxazolidinyl]methyl]acetamide]
3 | 1 µg/mL (≈ 2.25 µM) | 2 µg/mL (≈ 4.5 µM) | 2 µg/mL (≈ 4.5 µM) | 8 µg/mL (≈ 18 µM) | 8 µg/mL (≈ 18 µM) | 8 µg/mL (≈ 18 µM) | 4 µg/mL (≈ 9 µM) | 8 µg/mL (≈ 18 µM) | 1 µg/mL (≈ 2.25 µM) | CC(=O)NC[C@H]1CN(c2ccc(N3CCN(Cc4ccc(C=O)o4)CC3)c(F)c2)C(=O)O1 [Compound No. 02, (S)-N-[[3-[3-Fluoro-4-[N-1[4-{2-furyl(5-formyl)methyl}]piperazinyl]phenyl]-2-oxo-5-oxazolidinyl]methyl]acetamide]
4 | 8 µg/mL (≈ 16.8 µM) | 8 µg/mL (≈ 16.8 µM) | 8 µg/mL (≈ 16.8 µM) | 8 µg/mL (≈ 16.8 µM) | 8 µg/mL (≈ 16.8 µM) | 1 µg/mL (≈ 2.09 µM) | 8 µg/mL (≈ 16.8 µM) | 8 µg/mL (≈ 16.8 µM) |  | CC(=O)NC[C@H]1CN(c2ccc(N3CCN(Cc4ccc([N+](=O)[O-])s4)CC3)c(F)c2)C(=O)O1 [Compound No. 23, (S)-N[[3-[3-Fluoro-4-[N-1[4-(2-thienyl(5-nitro)methyl}]piperazinyl]phenyl]2-oxo-5-oxazolidinyl]methyl]acetamide]
5 | 4 µg/mL (≈ 7.82 µM) | 2 µg/mL (≈ 3.91 µM) | 2 µg/mL (≈ 3.91 µM) | 2 µg/mL (≈ 3.91 µM) | 2 µg/mL (≈ 3.91 µM) | 2 µg/mL (≈ 3.91 µM) | 4 µg/mL (≈ 7.82 µM) | 4 µg/mL (≈ 7.82 µM) | 2 µg/mL (≈ 3.91 µM) | CC(=O)NC[C@H]1CN(c2ccc(N3CCN(Cc4cc(Br)cs4)CC3)c(F)c2)C(=O)O1 [Compound No. 14, (S)-N-[[3-[3-Fluoro-4-[N-1[4-{2-thienyl(4-bromo)methyl}]piperazinyl]phenyl]-2-oxo-5-oxazolidinyl]methyl]acetamide]
6 | 8 µg/mL (≈ 17.1 µM) | 4 µg/mL (≈ 8.57 µM) | 4 µg/mL (≈ 8.57 µM) | 8 µg/mL (≈ 17.1 µM) | 4 µg/mL (≈ 8.57 µM) | 1 µg/mL (≈ 2.14 µM) | 4 µg/mL (≈ 8.57 µM) | 8 µg/mL (≈ 17.1 µM) |  | CC(=O)NC[C@H]1CN(c2ccc(N3CCN(Cc4ccc(Cl)s4)CC3)c(F)c2)C(=O)O1 [Compound No. 10, (S)-N[[3-[3-Fluoro-4-[N-1[4-{2-thienyl(5-chloro)methyl}]piperazinyl]phenyl]2-oxo-5-oxazolidinyl]methyl]acetamide]
7 | 2 µg/mL (≈ 4.35 µM) | 2 µg/mL (≈ 4.35 µM) | 2 µg/mL (≈ 4.35 µM) | 8 µg/mL (≈ 17.4 µM) | 16 µg/mL (≈ 34.8 µM) | 4 µg/mL (≈ 8.71 µM) | 8 µg/mL (≈ 17.4 µM) | 8 µg/mL (≈ 17.4 µM) |  | CC(=O)NC[C@H]1CN(c2ccc(N3CCN(Cc4ccc(C=NO)o4)CC3)c(F)c2)C(=O)O1 [Compound No. 60, (S)-N-[[3-[3-Fluoro-4-[N-1-[4-(2-furyl-(5-aldoxime)methyl}]piperazinyl]phenyl]-2-oxo-5-oxazolidinyl]methyl]acetamide]

Further lines, the molecule ahead of its results:

Row | SMILES | MIC S. aureus 25923 (S. aureus ATCC 25923) | MIC MRSA 15187 (MRSA 15187) | MIC MRSA 33 (MRSA 33) | MIC E. faecalis 29212 (Ent. faecalis ATCC 29212) | MIC VRE 6A (VRE 6A (Ent. faecium 6A)) | MIC S. pyogenes 19615 (Strep. pyog. ATCC 19615) | MIC S. pneum 6303 (Strep. pne. ATCC 6303) | MIC S. pneum AB 34 (S. pneum AB 34) | MIC MRSA 562 (MRSA 562)
8 | CC(=O)NC[C@H]1CN(c2ccc(N3C[C@@H]4[C@H](C3)[C@H]4N(C)C(=O)c3ccc(Br)o3)c(F)c2)C(=O)O1 [Compound No. 33, (S)-N-[[3-[3-Fluoro[4-[3-(1α,5α,6α)-6-[N-(5-bromo-2-furoyl)-N-methyl]amino]-3-azabicyclo-[3.1.0.]hexane]phenyl]-2-oxo-5-oxazolidinyl]methyl]acetamide] | 4 µg/mL (≈ 7.47 µM) | 4 µg/mL (≈ 7.47 µM) | 4 µg/mL (≈ 7.47 µM) | 4 µg/mL (≈ 7.47 µM) | 4 µg/mL (≈ 7.47 µM) | 0.5 µg/mL (≈ 0.934 µM) | 8 µg/mL (≈ 14.9 µM) | 4 µg/mL (≈ 7.47 µM) | 
9 | CC(=O)NC[C@H]1CN(c2ccc(N3CCN(C(=O)c4ccc(CCl)o4)CC3)c(F)c2)C(=O)O1 [Compound No. 05, (S)-N-[[3-Fluoro-4-[N-1[4-(5-chloromethyl-2-furoyl)piperazinyl]phenyl]-2-oxo-5-oxazolidinyl]methyl]acetamide] | 16 µg/mL (≈ 33.4 µM) | 4 µg/mL (≈ 8.35 µM) | 4 µg/mL (≈ 8.35 µM) | 8 µg/mL (≈ 16.7 µM) | 8 µg/mL (≈ 16.7 µM) | 4 µg/mL (≈ 8.35 µM) | 4 µg/mL (≈ 8.35 µM) | 4 µg/mL (≈ 8.35 µM) | 
10 | CC(=O)NC[C@H]1CN(c2ccc(N3CCN(Cc4cccn4C)CC3)c(F)c2)C(=O)O1 [Compound No. 22, (S)-N[[3-[3-Fluoro-4-[N-1[4-{2-pyrrole(1-methyl)methyl}]piperazinyl]phenyl]2-oxo-5-oxazolidinyl]methyl]acetamide] | 2 µg/mL (≈ 4.66 µM) | 8 µg/mL (≈ 18.6 µM) | 8 µg/mL (≈ 18.6 µM) | 8 µg/mL (≈ 18.6 µM) | 8 µg/mL (≈ 18.6 µM) | 1 µg/mL (≈ 2.33 µM) | 1 µg/mL (≈ 2.33 µM) | 1 µg/mL (≈ 2.33 µM) | 4 µg/mL (≈ 9.31 µM)
11 | CC(=O)NC[C@H]1CN(c2ccc(N3CCC(N(C)Cc4ccc([N+](=O)[O-])s4)CC3)c(F)c2)C(=O)O1 [Compound No. 51, (S)-N-[[3-[4-[4-(N-methyl-N-2-thienyl(5-nitro)methyl)aminopiperidine-1-yl]-3-fluorophenyl]-2-oxo-oxazolidin-5-yl]methyl]acetamide] | 2 µg/mL (≈ 3.96 µM) | 1 µg/mL (≈ 1.98 µM) | 1 µg/mL (≈ 1.98 µM) | 4 µg/mL (≈ 7.91 µM) | 4 µg/mL (≈ 7.91 µM) | 0.5 µg/mL (≈ 0.989 µM) |  | 2 µg/mL (≈ 3.96 µM) | 1 µg/mL (≈ 1.98 µM)
12 | CC(=O)NC[C@H]1CN(c2ccc(N3CCN(Cc4ccc([N+](=O)[O-])o4)CC3)c(F)c2)C(=O)O1.O=C(O)CC(O)(CC(=O)O)C(=O)O [Compound No. 17] | 2 µg/mL | 2 µg/mL | 2 µg/mL | 2 µg/mL | 4 µg/mL | 1 µg/mL | 2 µg/mL | 1 µg/mL | 
13 | CC(=O)NC[C@H]1CN(c2ccc(N3CC4C(C3)C4N(C)C(=O)c3ccsc3)c(F)c2)C(=O)O1 (stereo partly drawn) [Compound No. 73, (S)-N-[[3-[3-Fluoro[4-[3-(1α,5α,6α)-6-[N-(3-thienoyl)-N-methyl]amino]-3-aza-bicyclo[3.1.0]hexane]phenyl]-2-oxo-5-oxazolidinyl]methyl]acetamide] | 8 µg/mL (≈ 16.9 µM) | 8 µg/mL (≈ 16.9 µM) | 8 µg/mL (≈ 16.9 µM) | 8 µg/mL (≈ 16.9 µM) | 8 µg/mL (≈ 16.9 µM) | 1 µg/mL (≈ 2.12 µM) | 4 µg/mL (≈ 8.46 µM) | 8 µg/mL (≈ 16.9 µM) | 
14 | CC(=O)NC[C@H]1CN(c2ccc(N3CC4C(C3)C4N(C)Cc3ccc(C=O)o3)c(F)c2)C(=O)O1 (stereo partly drawn) [Compound No. 72, (S)-N-[[3-[3-Fluoro[4-[3-(1α,5α,6α)-6-[N-(5-formyl-2-furylmethyl)-N-methyl]-amino]-3-azabicyclo-[3.1.0]hexane]phenyl]-2-oxo-5-oxazolidinyl]methyl]acetamide] | 8 µg/mL (≈ 17 µM) | 4 µg/mL (≈ 8.5 µM) | 4 µg/mL (≈ 8.5 µM) | 8 µg/mL (≈ 17 µM) | 8 µg/mL (≈ 17 µM) | 0.25 µg/mL (≈ 0.531 µM) | 4 µg/mL (≈ 8.5 µM) | 4 µg/mL (≈ 8.5 µM) | 
15 | CC(=O)NC[C@H]1CN(c2ccc(N3CC4C(C3)C4N(C)C(=O)c3ccoc3)c(F)c2)C(=O)O1 (stereo partly drawn) [Compound No. 32, (S)-N-[[3-[3-Fluoro[4-[3-(1α,5α,6α)-6-[N-(3-furoyl)-N-methyl]amino]-3-azabicyclo-[3.1.0]hexane]phenyl]-2-oxo-5-oxazolidinyl]methyl]acetamide] | 8 µg/mL (≈ 17.5 µM) | 8 µg/mL (≈ 17.5 µM) | 8 µg/mL (≈ 17.5 µM) | 8 µg/mL (≈ 17.5 µM) | 8 µg/mL (≈ 17.5 µM) | 1 µg/mL (≈ 2.19 µM) | 4 µg/mL (≈ 8.76 µM) | 4 µg/mL (≈ 8.76 µM) | 
16 | COC(=O)Cc1ccc(NC(=O)ON=Cc2ccc(CN3CCN(c4ccc(N5C[C@H](CNC(C)=O)OC5=O)cc4F)CC3)o2)cc1 [Compound No. 61] | 8 µg/mL (≈ 12.3 µM) | 8 µg/mL (≈ 12.3 µM) | 8 µg/mL (≈ 12.3 µM) | 8 µg/mL (≈ 12.3 µM) | 8 µg/mL (≈ 12.3 µM) | 8 µg/mL (≈ 12.3 µM) | 8 µg/mL (≈ 12.3 µM) | 8 µg/mL (≈ 12.3 µM) | 
